From ChEMBL document CHEMBL4346657, “Anticancer activity, dual prooxidant/antioxidant effect and apoptosis induction profile of new bichalcophene-5-carboxamidines” (Eur J Med Chem, 2019)
Active and inactive are the calls of the source. The calls are words filed in the database; no cut-off is given here.

Assays:
[1] = test system: Panel NCI-60 (60 carcinoma cell lines); test: Antiproliferative activity against human NCI60 cells assessed as growth inhibition after 48 hrs by sulforhodamine B assay; assay type: functional
WI-38 = test: Cytotoxicity activity against human WI38 cells assessed as reduction in cell viability measured after 48 hrs by MTT assay; assay type: cell-based; details: WI-38, 48 h
[2] = Selectivity index, ratio of IC50 for human WI38 cells to GI50 for human NCI60 cells
MDA-MB-231 = test: Antiproliferative activity against human MDA-MB-231/ATCC cells assessed as growth inhibition after 48 hrs by sulforhodamine B assay; assay type: functional; details: MDA-MB-231, 48 h
SN12C = test: Antiproliferative activity against human SN12C cells assessed as growth inhibition after 48 hrs by sulforhodamine B assay; assay type: functional
RXF 393 = test: Antiproliferative activity against human RXF393 cells assessed as growth inhibition after 48 hrs by sulforhodamine B assay; assay type: functional; details: RXF 393, 48 h
CAKI-1 = test: Antiproliferative activity against human CAKI-1 cells assessed as growth inhibition after 48 hrs by sulforhodamine B assay; assay type: functional; details: CAKI-1, 48 h
786-0 = test: Antiproliferative activity against human 786-0 cells assessed as growth inhibition after 48 hrs by sulforhodamine B assay; assay type: functional; details: 786-0, 48 h
OVCAR-5 = test: Antiproliferative activity against human OVCAR5 cells assessed as growth inhibition after 48 hrs by sulforhodamine B assay; assay type: functional; details: OVCAR-5, 48 h
IGROV-1 = test: Antiproliferative activity against human IGROV1 cells assessed as growth inhibition after 48 hrs by sulforhodamine B assay; assay type: functional; details: IGROV-1, 48 h
UACC-257 = test: Antiproliferative activity against human UACC257 cells assessed as growth inhibition after 48 hrs by sulforhodamine B assay; assay type: functional; details: UACC-257, 48 h
SK-MEL-5 = test: Antiproliferative activity against human SK-MEL-5 cells assessed as growth inhibition after 48 hrs by sulforhodamine B assay; assay type: functional; details: SK-MEL-5, 48 h
SK-MEL-28 = test: Antiproliferative activity against human SK-MEL-28 cells assessed as growth inhibition after 48 hrs by sulforhodamine B assay; assay type: functional; details: SK-MEL-28, 48 h
M14 = test: Antiproliferative activity against human M14 cells assessed as growth inhibition after 48 hrs by sulforhodamine B assay; assay type: functional; details: M14, 48 h
LOX IMVI = test: Antiproliferative activity against human LOXIMVI cells assessed as growth inhibition after 48 hrs by sulforhodamine B assay; assay type: functional
SNB-19 = test: Antiproliferative activity against human SNB19 cells assessed as growth inhibition after 48 hrs by sulforhodamine B assay; assay type: functional; details: SNB-19, 48 h
SF-539 = test: Antiproliferative activity against human SF539 cells assessed as growth inhibition after 48 hrs by sulforhodamine B assay; assay type: functional; details: SF-539, 48 h
KM12 = test: Antiproliferative activity against human KM12 cells assessed as growth inhibition after 48 hrs by sulforhodamine B assay; assay type: functional; details: KM12, 48 h
HCT-15 = test: Antiproliferative activity against human HCT15 cells assessed as growth inhibition after 48 hrs by sulforhodamine B assay; assay type: functional; details: HCT-15, 48 h
HCC 2998 = test: Antiproliferative activity against human HCC2998 cells assessed as growth inhibition after 48 hrs by sulforhodamine B assay; assay type: functional; details: HCC 2998, 48 h
NCI-H23 = test: Antiproliferative activity against human NCI-H23 cells assessed as growth inhibition after 48 hrs by sulforhodamine B assay; assay type: functional; details: NCI-H23, 48 h
A549 = test: Antiproliferative activity against human A549/ATCC cells assessed as growth inhibition after 48 hrs by sulforhodamine B assay; assay type: functional; details: A549, 48 h
SR = test: Antiproliferative activity against human SR cells assessed as growth inhibition after 48 hrs by sulforhodamine B assay; assay type: functional
MOLT-4 = test: Antiproliferative activity against human MOLT4 cells assessed as growth inhibition after 48 hrs by sulforhodamine B assay; assay type: functional; details: MOLT-4, 48 h
HL-60(TB) = test: Antiproliferative activity against human HL-60(TB) cells assessed as growth inhibition after 48 hrs by sulforhodamine B assay; assay type: functional; details: HL-60, 48 h
BT-549 = test: Antiproliferative activity against human BT549 cells assessed as growth inhibition after 48 hrs by sulforhodamine B assay; assay type: functional; details: BT-549, 48 h
T47D = test: Antiproliferative activity against human T47D cells assessed as growth inhibition after 48 hrs by sulforhodamine B assay; assay type: functional
MDA-MB-468 = test: Antiproliferative activity against human MDA-MB-468 cells assessed as growth inhibition after 48 hrs by sulforhodamine B assay; assay type: functional; details: MDA-MB-468, 48 h
[3] = Haemolytic activity in human erythrocytes assessed as induction of hemolysis at 5 mM after 30 mins relative to H202; assay type: cell-based, Erythrocyte; details: read-out: Activity
[4] = Haemolytic activity in human erythrocytes assessed as induction of hemolysis at 2.5 mM after 30 mins relative to H202; assay type: cell-based, Erythrocyte; details: erythrocytes, read-out: Activity
[5] = Antioxidant activity assessed as DPPH radical scavenging activity incubated in dark for 30 mins by spectrophotometric method relative to control; assay type: functional; parameters: concentration or dose not given beside the values
[6] = Antioxidant activity assessed as hydroxyl radical scavenging activity after 1 hr by salicylic acid-based Fenton reaction assay; assay type: functional
HCT-116 [7] = test: Induction of apoptosis in human HCT116 cells assessed as increase in caspase 3 mRNA expression at 100 nM after 6 hrs hrs by SYBR green dye-based qRT-PCR analysis relative to control; assay type: functional
HCT-116 [8] = test: Induction of apoptosis in human HCT116 cells assessed as increase in caspase 9 mRNA expression at 100 nM after 6 hrs hrs by SYBR green dye-based qRT-PCR analysis relative to control; assay type: functional
HCT-116 [9] = test: Induction of apoptosis in human HCT116 cells assessed as increase in p53 mRNA expression at 100 nM after 6 hrs hrs by SYBR green dye-based qRT-PCR analysis relative to control; assay type: functional
HOP-92 = test: Antiproliferative activity against human HOP92 cells assessed as growth inhibition after 48 hrs by sulforhodamine B assay; assay type: functional; details: HOP-92, 48 h

| SMILES | GI50 [1] [nM] | LC50 [1] [µM] | TGI [1] [µM] | IC50 (WI-38) [µM] | Selectivity Index [2] | GI50 (MDA-MB-231) [nM] | GI50 (SN12C) [nM] | GI50 (RXF 393) [nM] | GI50 (CAKI-1) [nM] | GI50 (786-0) [nM] | GI50 (OVCAR-5) [nM] | GI50 (IGROV-1) [nM] | GI50 (UACC-257) [nM] | GI50 (SK-MEL-5) [nM] | GI50 (SK-MEL-28) [nM] | GI50 (M14) [nM] | GI50 (LOX IMVI) [nM] | GI50 (SNB-19) [nM] | GI50 (SF-539) [nM] | GI50 (KM12) [nM] | further results |
| --- | --- | --- | --- | --- | --- | --- | --- | --- | --- | --- | --- | --- | --- | --- | --- | --- | --- | --- | --- | --- | --- |
| N=C(N)c1ccc(-c2ccc(-c3ccc(F)cc3)s2)s1 | 1770 | 12 | 3.54 | 13.3 | 7.5 | 1740 | 1980 | 1750 | 1680 | 1810 | 1700 | 1730 | 2190 | 1810 | 1730 | 1890 | 1620 | 1970 | 1670 | 1710 | GI50 (HCT-15): 1340 nM; GI50 (HCC 2998): 1730 nM; GI50 (NCI-H23): 1800 nM; GI50 (A549): 1930 nM; GI50 (SR): 1170 nM; GI50 (MOLT-4): 1520 nM; GI50 (HL-60(TB)): 1400 nM; GI50 (BT-549): 1890 nM; GI50 (T47D): 1740 nM; GI50 (MDA-MB-468): 2040 nM; hemolysis at 0.5 h, 5000 µM [3]: 59.7%; hemolysis at 0.5 h, 2500 µM [4]: 14%; inhibition [5]: 44.8%; Activity [6]: Active; fold change (FC) (HCT-116 [7]): 3.71; fold change (FC) (HCT-116 [8]): 3.89; fold change (FC) (HCT-116 [9]): 1.06 |
| N=C(N)c1ccc(-c2ccc(-c3ccc(Cl)cc3)s2)s1 | 1730 | 29.5 | 4.07 | 69.2 | 40 | 1800 | 1910 | 1710 | 1610 | 1790 | 1580 | 1830 | 2780 | 3160 | 1680 | 1710 | 1310 | 1920 | 1630 | 1690 | GI50 (HCT-15): 1200 nM; GI50 (HCC 2998): 1570 nM; GI50 (NCI-H23): 1620 nM; GI50 (HOP-92): 1810 nM; GI50 (A549): 2110 nM; GI50 (SR): 320 nM; GI50 (MOLT-4): 1780 nM; GI50 (HL-60(TB)): 1490 nM; GI50 (BT-549): 2110 nM; GI50 (T47D): 1550 nM; GI50 (MDA-MB-468): 1980 nM; hemolysis at 0.5 h, 5000 µM [3]: 49%; hemolysis at 0.5 h, 2500 µM [4]: 14.3%; inhibition [5]: 72.9%; Activity [6]: Active; fold change (FC) (HCT-116 [7]): 3; fold change (FC) (HCT-116 [8]): 2.91; fold change (FC) (HCT-116 [9]): 0.89 |
